According to patent publication US9169195B2, “Amides, use of amides as solvents for organic compounds, compositions and emulsions containing amides, and method for treating a plant” (AKZO NOBEL CHEMICALS INTERNATIONAL B.V., priority 2009, dated 2015):
Read-outs that look alike come from different tables or passages of the source.

Experiments:
[1] = Solubility of active ingredients in the amide solvents (solvent added until dissolved, stable 24 h)
Procedure: Various agriculturally active ingredients were dissolved in both N-methyl-N-(2-propylheptyl)-formamide and N-methyl-N-(n-decyl)-formamide in order to evaluate the solubility of the active ingredients in the amides.
This was done by adding the active ingredient (AI) to a beaker and thereafter adding the solvent until the entire AI had been dissolved. The solutions were continually stirred at a temperature of 23° C. during the experiments. When everything had been dissolved, the beakers were left without stirring for 24 h to see if the solution was stable (i.e. no crystallization).

[2] = numbers taken from the e-Pesticide Manual v 4.0; cited from earlier work
[3] = solvent N-methyl-N-(2-propylheptyl) formamide, 23° C.
[4] = solvent N-methyl-N-(n-decyl) formamide, 23° C.

Structure (SMILES): Cc1c(COC(=O)[C@@H]2[C@H](/C=C(\Cl)C(F)(F)F)C2(C)C)cccc1-c1ccccc1 (racemic) [Bifenthrin]
- Solubility in N-Methyl-N-(2-propylheptyl) formamide [1, 3]: >50 g Al/100 g solvent
- Solubility in N-Methyl-N-(n-decyl) formamide [1, 4]: >50 g Al/100 g solvent
- Solubility in Water [2]: <0.0000001 g Al/100 g solvent

Structure (SMILES): O=C(O)COc1ccc(Cl)cc1Cl [2,4-D acid]
- Solubility in N-Methyl-N-(2-propylheptyl) formamide [1, 3]: 41 g Al/100 g solvent
- Solubility in N-Methyl-N-(n-decyl) formamide [1, 4]: >50 g Al/100 g solvent
- Solubility in Water [2]: 0.0311 g Al/100 g solvent

Structure (SMILES): Cc1ccc(/N=C/N(C)/C=N/c2ccc(C)cc2C)c(C)c1 [Amitraz]
- Solubility in N-Methyl-N-(2-propylheptyl) formamide [1, 3]: >50 g Al/100 g solvent
- Solubility in N-Methyl-N-(n-decyl) formamide [1, 4]: >50 g Al/100 g solvent
- Solubility in Water [2]: <0.00001 g Al/100 g solvent

Structure (SMILES): CC(C)(C)C(O)(CCc1ccc(Cl)cc1)Cn1cncn1 (stereo not shown) [Tebuconazole]
- Solubility in N-Methyl-N-(n-decyl) formamide [1]: 48 g Al/100 g solvent
- Solubility in N-Methyl-N-(2-propylheptyl) formamide [1, 3]: 48 g Al/100 g solvent

Structure (SMILES): CON=C(C(=O)OC)c1ccccc1CON=C(C)c1cccc(C(F)(F)F)c1 [Trifloxystrobin]
- Solubility in N-Methyl-N-(2-propylheptyl) formamide [1]: 23 g Al/100 g solvent
- Solubility in N-Methyl-N-(n-decyl) formamide [1]: 23 g Al/100 g solvent
